Source: PubChem BioAssay (NCI)
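1) Cells in 96-well plates. 2) Compound, 48 h, 5 concentrations. 3) Linear interpolation between surrounding doses. 4) Unreached endpoint = highest concentration. At the TGI there is no net growth.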

Tests used:
Test in all cases: DTP human tumour cell line panel, 48 h
MALME-3M melanoma = system: MALME-3M melanoma
HCT-116 colon = system: HCT-116 colon
BT-549 breast = system: BT-549 breast
UACC-62 melanoma = system: UACC-62 melanoma
CCRF-CEM leukemia = system: CCRF-CEM leukemia
786-0 renal = system: 786-0 renal
HL-60(TB) leukemia = system: HL-60(TB) leukemia
TK-10 renal = system: TK-10 renal
LOX IMVI melanoma = system: LOX IMVI melanoma
NCI-H23 lung = system: NCI-H23 lung
OVCAR-8 ovarian = system: OVCAR-8 ovarian
U251 CNS = system: U251 CNS
EKVX NSCLC = system: EKVX NSCLC
SK-MEL-5 melanoma = system: SK-MEL-5 melanoma
NCI-H460 lung = system: NCI-H460 lung
SK-MEL-28 melanoma = system: SK-MEL-28 melanoma
MDA-MB-435 = system: MDA-MB-435
COLO 205 colon = system: COLO 205 colon
MDA-N = system: MDA-N
SNB-75 CNS = system: SNB-75 CNS
SK-OV-3 ovarian = system: SK-OV-3 ovarian
K-562 leukemia = system: K-562 leukemia
A498 renal = system: A498 renal
RPMI-8226 leukemia = system: RPMI-8226 leukemia
MOLT-4 leukemia = system: MOLT-4 leukemia
NCI/ADR-RES ovarian = system: NCI/ADR-RES ovarian
SF-295 CNS = system: SF-295 CNS
OVCAR-5 ovarian = system: OVCAR-5 ovarian
HCC-2998 colon = system: HCC-2998 colon
A549 NSCLC = system: A549 NSCLC
NCI-H522 lung = system: NCI-H522 lung
DU-145 prostate = system: DU-145 prostate
OVCAR-3 ovarian = system: OVCAR-3 ovarian
UACC-257 melanoma = system: UACC-257 melanoma
OVCAR-4 ovarian = system: OVCAR-4 ovarian
SK-MEL-2 melanoma = system: SK-MEL-2 melanoma
SF-268 CNS = system: SF-268 CNS
MDA-MB-231 breast = system: MDA-MB-231 breast
CAKI-1 renal = system: CAKI-1 renal
HOP-62 NSCLC = system: HOP-62 NSCLC
HCT-15 colon = system: HCT-15 colon
HS 578T breast = system: HS 578T breast
SNB-19 CNS = system: SNB-19 CNS
HT29 colon = system: HT29 colon
T-47D breast = system: T-47D breast
SF-539 CNS = system: SF-539 CNS
RXF 393 renal = system: RXF 393 renal
M14 melanoma = system: M14 melanoma
SN12C renal = system: SN12C renal
HOP-92 NSCLC = system: HOP-92 NSCLC
KM12 colon = system: KM12 colon
NCI-H226 lung = system: NCI-H226 lung
ACHN renal = system: ACHN renal
SW-620 colon = system: SW-620 colon
UO-31 renal = system: UO-31 renal
SR leukemia = system: SR leukemia
IGROV1 ovarian = system: IGROV1 ovarian
PC-3 prostate = system: PC-3 prostate

## COC1C(O)C(C)OC(O[C@@H]2C[C@H]3CC[C@@H]4[C@H](CC[C@]5(C)[C@@H](C6=CC(=O)OC6)CC[C@]45O)[C@@]3(C)[C@H](O)C2)C1O (stereo partly drawn)
MALME-3M melanoma
  TGI: 119 nM
HCT-116 colon
  TGI: 99.4 nM
BT-549 breast
  TGI: 159 nM
UACC-62 melanoma
  TGI: 647 nM
CCRF-CEM leukemia
  TGI: > 100000 nM
786-0 renal
  TGI: > 100000 nM
HL-60(TB) leukemia
  TGI: 145 nM
TK-10 renal
  TGI: 896 nM
LOX IMVI melanoma
  TGI: 233 nM
NCI-H23 lung
  TGI: 23.1 nM
OVCAR-8 ovarian
  TGI: 268 nM
U251 CNS
  TGI: 12500 nM
EKVX NSCLC
  TGI: 168 nM
SK-MEL-5 melanoma
  TGI: 122 nM
NCI-H460 lung
  TGI: 22.2 nM
SK-MEL-28 melanoma
  TGI: 819 nM
MDA-MB-435
  TGI: 379 nM
COLO 205 colon
  TGI: 1050 nM
MDA-N
  TGI: 83.8 nM
SNB-75 CNS
  TGI: 1010 nM
SK-OV-3 ovarian
  TGI: 347 nM
K-562 leukemia
  TGI: 457 nM
A498 renal
  TGI: 87.1 nM
RPMI-8226 leukemia
  TGI: 72.5 nM
MOLT-4 leukemia
  TGI: < 27.3 nM
NCI/ADR-RES ovarian
  TGI: 183 nM
SF-295 CNS
  TGI: 321 nM
OVCAR-5 ovarian
  TGI: 365 nM
HCC-2998 colon
  TGI: 2690 nM
A549 NSCLC
  TGI: < 46.2 nM
NCI-H522 lung
  TGI: 132 nM
DU-145 prostate
  TGI: 81.2 nM
OVCAR-3 ovarian
  TGI: 83.8 nM
UACC-257 melanoma
  TGI: 1070 nM
OVCAR-4 ovarian
  TGI: 37.9 nM
SK-MEL-2 melanoma
  TGI: 1700 nM
SF-268 CNS
  TGI: 171 nM
MDA-MB-231 breast
  TGI: > 100000 nM
CAKI-1 renal
  TGI: 21.5 nM
HOP-62 NSCLC
  TGI: 36.2 nM
HCT-15 colon
  TGI: 327 nM
HS 578T breast
  TGI: > 100000 nM
SNB-19 CNS
  TGI: 1260 nM
HT29 colon
  TGI: 472 nM
T-47D breast
  TGI: 817 nM
SF-539 CNS
  TGI: 24.9 nM
RXF 393 renal
  TGI: 36.3 nM
M14 melanoma
  TGI: 252 nM
SN12C renal
  TGI: 59.1 nM
HOP-92 NSCLC
  TGI: > 100000 nM
KM12 colon
  TGI: 1800 nM
NCI-H226 lung
  TGI: 532 nM
ACHN renal
  TGI: 615 nM

## CCSC12CC3c4cccc5c4C(CN5C(=O)c4ccccc4)CC3(O1)N(C)C2=O (stereo not drawn)
MALME-3M melanoma
  TGI: 88300 nM
HCT-116 colon
  TGI: > 100000 nM
BT-549 breast
  TGI: 80700 nM
UACC-62 melanoma
  TGI: 67900 nM
CCRF-CEM leukemia
  TGI: > 100000 nM
786-0 renal
  TGI: > 100000 nM
SW-620 colon
  TGI: > 100000 nM
HL-60(TB) leukemia
  TGI: 55700 nM
TK-10 renal
  TGI: > 100000 nM
LOX IMVI melanoma
  TGI: > 100000 nM
NCI-H23 lung
  TGI: 69800 nM
UO-31 renal
  TGI: > 100000 nM
OVCAR-8 ovarian
  TGI: > 100000 nM
U251 CNS
  TGI: > 100000 nM
EKVX NSCLC
  TGI: 83400 nM
SK-MEL-5 melanoma
  TGI: 28900 nM
NCI-H460 lung
  TGI: > 100000 nM
SK-MEL-28 melanoma
  TGI: > 100000 nM
MDA-MB-435
  TGI: > 100000 nM
COLO 205 colon
  TGI: 75000 nM
MDA-N
  TGI: 81600 nM
SNB-75 CNS
  TGI: > 100000 nM
SK-OV-3 ovarian
  TGI: > 100000 nM
K-562 leukemia
  TGI: > 100000 nM
A498 renal
  TGI: > 100000 nM
MOLT-4 leukemia
  TGI: 62600 nM
NCI/ADR-RES ovarian
  TGI: > 100000 nM
SF-295 CNS
  TGI: > 100000 nM
OVCAR-5 ovarian
  TGI: > 100000 nM
SR leukemia
  TGI: 77600 nM
A549 NSCLC
  TGI: > 100000 nM
NCI-H522 lung
  TGI: 64700 nM
DU-145 prostate
  TGI: > 100000 nM
OVCAR-3 ovarian
  TGI: > 100000 nM
UACC-257 melanoma
  TGI: > 100000 nM
OVCAR-4 ovarian
  TGI: > 100000 nM
SK-MEL-2 melanoma
  TGI: 89500 nM
SF-268 CNS
  TGI: > 100000 nM
MDA-MB-231 breast
  TGI: > 100000 nM
CAKI-1 renal
  TGI: > 100000 nM
HCT-15 colon
  TGI: > 100000 nM
HS 578T breast
  TGI: > 100000 nM
SNB-19 CNS
  TGI: > 100000 nM
HT29 colon
  TGI: > 100000 nM
T-47D breast
  TGI: > 100000 nM
SF-539 CNS
  TGI: > 100000 nM
RXF 393 renal
  TGI: > 100000 nM
IGROV1 ovarian
  TGI: > 100000 nM
PC-3 prostate
  TGI: 81200 nM
M14 melanoma
  TGI: > 100000 nM
SN12C renal
  TGI: 62900 nM
HOP-92 NSCLC
  TGI: 71900 nM
KM12 colon
  TGI: > 100000 nM
NCI-H226 lung
  TGI: > 100000 nM
ACHN renal
  TGI: > 100000 nM
